Where only a bound is given, the exact number is not on record here.

By Ki is commonly meant a dissociation constant, usually derived from enzyme kinetics or from competition with a known ligand. Read a low Ki as higher affinity. What is called IC50 is the concentration needed to halve the response being measured. Read a low IC50 as greater potency. Broadly, the melting point is the temperature, or range, at which the solid turns liquid.

One data set has as its target hCA I (Homo sapiens, UniProt P00915). Description: Esterase activity inhibition of hCA I purified from human erythrocytes (IC50, Ki). Conditions: for Inhibition Type hCA I / Ki: Lineweaver-Burk plot; for Ki / IC50: NI = No Inhibition; for IC50: mean from three assays, spectrophotometric; for inhibition effect on hCA I (in words): esterase activity. Type of data set: biochemical. As for the experimental part:
(§1) Esterase activities of purified hCA I and hCA II were determined according to the literature. Activity measurement has described in detail in our previous studies.
(§2) The method for determination of Ki values has described in detail in our previous studies. […] The data have linearized with Lineweaver–Burk plot in order to obtain Ki values.
(§3) IC50 and Ki values were expressed by averaging the results from triplicate experiments.
(§4) The enzymatic reaction, in a total volume of 3.0 mL, contained 1.4 mL of 0.05 M TRIS–SO4 buffer (pH 7.4), 1.0 mL of 3.0 mM 4-nitrophenylacetate, 0.5 mL H2O and 0.1 mL enzyme solution. A reference measurement was obtained by preparing the same cuvette without enzyme solution [46–49, 53].
(§5) Regression analysis graphs were drawn by plotting the percent enzyme activity versus inhibitor concentration and IC50 values were calculated.
(§6) Enzyme activity was also measured in the presence of the same substrate concentrations but in the absence of any inhibitor to determine the Vmax.

Another data set addresses hCA II (Homo sapiens, UniProt P00918). The data set is described as follows: Esterase activity inhibition of hCA II purified from human erythrocytes (IC50, Ki). Type of data set: biochemical. Conditions: for Inhibition Type hCA II / Ki: Lineweaver-Burk plot; for Ki / IC50: NI = No Inhibition; for IC50: mean from three assays, spectrophotometric; for inhibition effect on hCA II (in words): esterase activity. As to the method: as §1, §2, §3, §4, §5, §6

Chain of hCA I (P00915 whole entry): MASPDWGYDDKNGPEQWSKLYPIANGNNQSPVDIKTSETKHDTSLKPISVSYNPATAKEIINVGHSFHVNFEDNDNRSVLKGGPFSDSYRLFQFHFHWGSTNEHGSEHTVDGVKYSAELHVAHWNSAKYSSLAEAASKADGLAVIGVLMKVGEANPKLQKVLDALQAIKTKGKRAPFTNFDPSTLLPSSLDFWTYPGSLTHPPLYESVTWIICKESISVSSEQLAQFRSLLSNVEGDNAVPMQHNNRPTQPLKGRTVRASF

In turn, `NS(=O)(=O)c1ccccc1NC(=O)c1nn(-c2ccccc2)c(-c2ccccc2)c1C(=O)c1ccccc1` [Compound 6c, 4-benzoyl-1,5-diphenyl-N-(2-sulfamoylphenyl)-1H-pyrazole-3-carboxamide] registered a melting point of 233 to 235 °C. Also, on hCA I, the “Inhibition Type hCA I” value is recorded as “Non competitive”; the affinity, expressed as Ki, was 3370 nM; the midpoint of inhibition, the IC50, lay at 6200 nM. At hCA II, the “Inhibition Type hCA II” value was “Non competitive”, the Ki was found to be 4230 nM and the IC50 was 6410 nM.
As to `NS(=O)(=O)c1cccc(NC(=O)c2nn(-c3ccccc3)c(-c3ccccc3)c2C(=O)c2ccccc2)c1` [Compound 6b, 4-benzoyl-1,5-diphenyl-N-(3-sulfamoylphenyl)-1H-pyrazole-3-carboxamide], at hCA I, the “Inhibition Type hCA I” value is “Non competitive”; the affinity, expressed as Ki, was 237 nM; the 50% inhibitory concentration (IC50) was determined as 463 nM. On hCA II, the “Inhibition Type hCA II” value is given as “Non competitive”, the Ki is 30 nM and it took 139 nM to reach half-maximal inhibition (IC50). In addition, the “stronger inhibitory effect than AAZ for hCA II” value at hCA II (compared with reference compound AAZ) is listed as “approximately fivefold”.
`Cc1ccnc(NS(=O)(=O)c2ccc(NC(=O)c3nn(-c4ccccc4)c(-c4ccccc4)c3C(=O)c3ccccc3)cc2)n1` [Compound 6f, 4-benzoyl-N-(4-(N-(4-methylpyrimidin-2-yl)sulfamoyl)phenyl)-1,5-diphenyl-1H-pyrazole-3-carboxamide] came in with a melting point of 237 to 239 °C. In addition, on hCA I, the “inhibition effect on hCA I (in words)” value is on record as “did not show any inhibition effect”. Further, the “inhibition effect on hCA II (in words)” value against hCA II is on record as “did not show any inhibition effect”.
In the case of `O=C(Nc1ccc(S(=O)(=O)Nc2nccs2)cc1)c1nn(-c2ccccc2)c(-c2ccccc2)c1C(=O)c1ccccc1` [Compound 6h, 4-benzoyl-1,5-diphenyl-N-(4-(N-(thiazol-2-yl)sulfamoyl)phenyl)-1H-pyrazole-3-carboxamide], the melting point was in the range of 252 to 254 °C. The “inhibition effect on hCA II (in words)” value against hCA II is listed as “did not inhibit”.
Molecule `O=C(Nc1ccc(S(=O)(=O)Nc2ncccn2)cc1)c1nn(-c2ccccc2)c(-c2ccccc2)c1C(=O)c1ccccc1` [Compound 6e, 4-benzoyl-1,5-diphenyl-N-(4-(N-(pyrimidin-2-yl)sulfamoyl)phenyl)-1H-pyrazole-3-carboxamide] had a melting point of 244 to 246 °C. Also, the “inhibition effect on hCA I (in words)” value at hCA I is “did not show any inhibition effect”. The “inhibition effect on hCA II (in words)” value against hCA II is reported as “did not show any inhibition effect”.
In turn, `O=C(Nc1ccc(S(=O)(=O)Nc2ccccn2)cc1)c1nn(-c2ccccc2)c(-c2ccccc2)c1C(=O)c1ccccc1` [Compound 6d, 4-benzoyl-1,5-diphenyl-N-(4-(N-(pyridin-2-yl)sulfamoyl)phenyl)-1H-pyrazole-3-carboxamide] registered a melting point of 239 to 241 °C. Further, the “inhibition effect on hCA I (in words)” value against hCA I is on record as “did not show any inhibition effect”. Also, the “inhibition effect on hCA II (in words)” value at hCA II was “did not show any inhibition effect”.
Consider `Cc1noc(NS(=O)(=O)c2ccc(NC(=O)c3nn(-c4ccccc4)c(-c4ccccc4)c3C(=O)c3ccccc3)cc2)c1C` [Compound 6g, 4-benzoyl-N-(4-(N-(3,4-dimethylisoxazol-5-yl)sulfamoyl)phenyl)-1,5-diphenyl-1H-pyrazole-3-carboxamide], for which the melting point fell in the range of 165 to 167 °C. Besides, the “maximal decrease of hCA I activity” value on hCA I (at most) was not above 50%. At hCA I, the IC50 was found to be 1660 nM.
Molecule `N=C(N)NS(=O)(=O)c1ccc(NC(=O)c2nn(-c3ccccc3)c(-c3ccccc3)c2C(=O)c2ccccc2)cc1` [Compound 6i, 4-benzoyl-N-(4-(N-carbamimidoylsulfamoyl)phenyl)-1,5-diphenyl-1H-pyrazole-3-carboxamide] gave a melting point of 280 to 282 °C. The “inhibition effect on hCA I (in words)” value against hCA I was “did not show any inhibition effect”. Moreover, on hCA II, the “inhibition effect on hCA II (in words)” value is “did not show any inhibition effect”.
